Measured values: patent publication US7465544B2, “Synthetic cofactor analogs of S-adenosylmethionine as ligatable probes of biological methylation and methods for their use” (Wisconsin Alumni Research Foundation, priority 2006, dated 2008)
Where a name gives a salt, the structure may show the parent alone.

Assays:
Format in all cases: biochemical
M.TaqI [1] = target: T1, M.TaqI (Thermus aquaticus, UniProt P14385); assay: Restriction/protection assay: M.TaqI-mediated alkylation of R.EcoRI-linearized pUC19; conditions: for extent of DNA alkylation (protection from R.TaqI digestion) with increasing M.TaqI: 14.3 nM linearized pUC19, 20 to 200 nM M.TaqI, 65° C. 4 h; for extent of DNA alkylation (protection from R.TaqI digestion) with increasing M.TaqI / protection of DNA from R.TaqI in the absence of M.TaqI: 100 μM cofactor analog; for protection of DNA from R.TaqI in the absence of M.TaqI: no M.TaqI; for protection from R.TaqI with increasing cofactor analog concentration: 10 to 100 μM cofactor analog, 200 nM M.TaqI; for efficiency of M.TaqI dependent DNA alkylation relative to 3: linearized pUC19, disappearance of smaller restriction fragments
T1 sequence (P14385 whole entry, the tested form may be a part): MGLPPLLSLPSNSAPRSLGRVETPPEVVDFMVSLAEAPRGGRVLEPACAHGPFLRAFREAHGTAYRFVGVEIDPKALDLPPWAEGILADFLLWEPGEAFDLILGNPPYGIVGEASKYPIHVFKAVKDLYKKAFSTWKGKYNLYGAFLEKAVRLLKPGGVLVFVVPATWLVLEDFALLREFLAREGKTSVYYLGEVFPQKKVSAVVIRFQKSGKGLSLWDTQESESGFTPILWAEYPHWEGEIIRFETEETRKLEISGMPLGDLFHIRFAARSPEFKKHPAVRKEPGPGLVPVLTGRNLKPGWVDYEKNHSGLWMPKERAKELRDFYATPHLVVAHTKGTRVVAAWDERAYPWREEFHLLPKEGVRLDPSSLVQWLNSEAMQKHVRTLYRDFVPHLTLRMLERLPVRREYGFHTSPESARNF

M.EcoRI = M.EcoRI (Escherichia coli, UniProt P00472)
Sequence of M.EcoRI (P00472 whole entry): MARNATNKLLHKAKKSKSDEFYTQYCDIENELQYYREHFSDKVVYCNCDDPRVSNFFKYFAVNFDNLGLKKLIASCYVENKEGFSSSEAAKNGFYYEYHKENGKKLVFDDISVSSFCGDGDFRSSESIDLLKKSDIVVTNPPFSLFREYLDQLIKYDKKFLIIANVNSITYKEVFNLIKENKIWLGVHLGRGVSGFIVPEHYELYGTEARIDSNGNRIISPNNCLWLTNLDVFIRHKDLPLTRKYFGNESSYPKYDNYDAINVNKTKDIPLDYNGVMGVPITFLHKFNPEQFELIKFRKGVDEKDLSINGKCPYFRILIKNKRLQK

M.TaqI [2] = target: T1, M.TaqI
M.HpaII = target: T2, M.HpaII (Haemophilus parainfluenzae, UniProt P15446); assay: M.HpaII-catalyzed transfer of cofactor analogs to DNA
T2 construct: purchased New England Biolabs
T2 sequence (P15446 1-358): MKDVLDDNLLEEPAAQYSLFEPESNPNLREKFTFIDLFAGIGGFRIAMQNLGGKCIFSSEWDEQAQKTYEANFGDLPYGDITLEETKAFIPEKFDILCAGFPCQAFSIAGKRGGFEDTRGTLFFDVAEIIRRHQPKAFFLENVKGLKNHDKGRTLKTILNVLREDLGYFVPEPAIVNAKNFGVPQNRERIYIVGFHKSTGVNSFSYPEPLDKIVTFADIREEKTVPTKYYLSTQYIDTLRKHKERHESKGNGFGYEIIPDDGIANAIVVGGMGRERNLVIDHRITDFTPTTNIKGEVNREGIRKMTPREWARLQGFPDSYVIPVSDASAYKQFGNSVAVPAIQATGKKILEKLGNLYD

M.HhaI = M.HhaI (Haemophilus parahaemolyticus, UniProt P05102)
Sequence of M.HhaI (P05102 whole entry): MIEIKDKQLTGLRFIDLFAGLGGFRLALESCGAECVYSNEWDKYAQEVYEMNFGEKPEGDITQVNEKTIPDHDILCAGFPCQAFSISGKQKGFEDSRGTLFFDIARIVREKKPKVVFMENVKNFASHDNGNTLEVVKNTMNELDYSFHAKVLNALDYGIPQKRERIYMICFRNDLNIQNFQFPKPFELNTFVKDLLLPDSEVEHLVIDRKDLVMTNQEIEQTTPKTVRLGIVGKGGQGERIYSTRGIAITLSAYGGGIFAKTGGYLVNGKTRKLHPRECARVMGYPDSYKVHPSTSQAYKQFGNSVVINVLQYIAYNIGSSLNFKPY

M.SssI = M.SssI (Spiroplasma monobiae, UniProt P15840)
Sequence of M.SssI (P15840 whole entry): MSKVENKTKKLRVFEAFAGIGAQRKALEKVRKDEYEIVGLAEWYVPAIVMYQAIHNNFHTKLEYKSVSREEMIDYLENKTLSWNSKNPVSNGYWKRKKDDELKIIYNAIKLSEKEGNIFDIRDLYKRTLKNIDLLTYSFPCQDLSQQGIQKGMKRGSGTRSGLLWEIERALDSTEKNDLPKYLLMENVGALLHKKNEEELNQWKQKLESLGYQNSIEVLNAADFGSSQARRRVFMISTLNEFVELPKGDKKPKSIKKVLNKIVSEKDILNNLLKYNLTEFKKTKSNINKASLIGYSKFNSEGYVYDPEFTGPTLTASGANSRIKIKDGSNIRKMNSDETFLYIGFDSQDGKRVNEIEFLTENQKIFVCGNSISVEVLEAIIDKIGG

| Compound | extent of DNA alkylation (protection from R.TaqI digestion) with increasing M.TaqI (M.TaqI [1]) | protection of DNA from R.TaqI in the absence of M.TaqI (M.TaqI [1]) | protection from R.TaqI with increasing cofactor analog concentration (M.TaqI [1]) | transfer of cofactor analog to radiolabeled synthetic oligo duplex (M.EcoRI) | covalent attachment to synthetic oligonucleotide (DNA mobility shift) (M.TaqI [2]) | M.HpaII-catalyzed transfer of cofactor analog (M.HpaII) | M.HhaI-catalyzed transfer of cofactor analog (M.HhaI) | efficiency of M.TaqI dependent DNA alkylation relative to 3 (M.TaqI [1]) | DNA alkylation at 200 nM cofactor analog (M.EcoRI) | further results |
| --- | --- | --- | --- | --- | --- | --- | --- | --- | --- | --- |
| 5′-aziridine adenylate [compound 3, reference compound] | increase in the amount of DNA alkylation | no protection of the DNA | increased protection from R.TaqI | clearly capable of transferring | pronounced shift of the DNA mobility | compatible | – | – | – | – |
| [N-]=[N+]=Nc1nc2c(N)ncnc2n1[C@@H]1O[C@H](CN2CC2)C(O)[C@@H]1O (stereo partly shown) [24a, 8-azido-5′-aziridino-5′-deoxyadenosine] | increase in the amount of DNA alkylation | no protection of the DNA | increased protection from R.TaqI | closely parallels that observed with M.TaqI | pronounced shift of the DNA mobility | not able to catalyze the transfer | catalyzed the transfer | better cofactor analogs for M.TaqI than is the unsubstituted cofactor analog 3 | – | transfer to the 55-mer duplex 5 (M.HhaI): effectively catalyze the transfer; M.SssI transfer of cofactor analog to its recognition sequence (M.SssI): readily transfers; efficiency of M.SssI mediated DNA alkylation, hemimethylated duplex 9 versus unmethylated duplex 8 (M.SssI): significantly more efficient for hemimethylated duplex 9; transfer to the 55-mer duplex 5 (M.TaqI [2]): effectively catalyze the transfer |
| [N-]=[N+]=NCCCCNc1nc2c(N)ncnc2n1[C@@H]1O[C@H](CN2CC2)[C@H](O)C1O (stereo partly shown) [24b, 8-(4″-Azido-butylamino)-5′-aziridino-5′-deoxy adenosine] | increase in the amount of DNA alkylation | no protection of the DNA | increased protection from R.TaqI | closely parallels that observed with M.TaqI | pronounced shift of the DNA mobility | not able to catalyze the transfer | catalyzed the transfer | better cofactor analogs for M.TaqI than is the unsubstituted cofactor analog 3 | – | – |
| C#CCN(CCI)C[C@H]1O[C@@H](n2cnc3c(N)ncnc32)[C@@H](O)C1O (stereo partly shown) [compound 56, 5′-[(iodoethyl)propargyl)amino]-2′,3′-5′-deoxyadenosine hydrochloride] | – | – | – | – | – | – | – | – | not active at all | DNA-damaging activity in the presence of M.HhaI (M.HhaI): completely devoid of DNA-damaging activity; protection of linearized pUC19 DNA from R.TaqI digestion (M.TaqI [1]; brief treatments with M.TaqI, unpublished data): used very effectively to protect linearized pUC19 DNA from R.TaqI digestion; DNA alkylation activity relative to 3 (M.EcoRI): closely parallels that of 3; alkylation of duplex pre-methylated with SAM (M.EcoRI): failed to undergo reaction; DNA alkylation activity relative to 3 (M.TaqI [2]): closely parallels that of 3; alkylation of duplex pre-methylated with SAM (M.TaqI [2]): failed to undergo reaction |
| Nc1ncnc2c1ncn2[C@@H]1O[C@H](CN(CCI)CC[C@H](N)C(=O)O)C(O)[C@@H]1O (stereo partly shown) [compound 67, 5′-(diaminobutyric acid)-N-iodoethyl-5′-deoxyadenosine ammonium hydrochloride] | – | – | – | – | – | – | – | – | significant amount of slow mobility DNA | alkylation of duplex bearing 5-MeC for C substitution at the target base (M.HhaI): failed to undergo alkylation; alkylation of duplex bearing 5-MeC for C substitution at the target base (M.SssI): failed to undergo alkylation; lowest concentration at which cofactor analog is active (M.EcoRI): ≤ 40 nM |
